The values that follow come from US12291504B2 (University of Pittsburgh—Of the Commonwealth System of …, priority 2018, dated 2025).

Common to all, as to type: biochemical
One assay addresses SULT1A3 (Homo sapiens, UniProt P0DMM9). In words: SULT1A3 inhibition studies, 1-HP initial-rate fluorescence assay. The settings on record: for inhibition: read-out: SULT1A3 Enzyme Inhibition at Saturation/%. More on the design: Wild-type and mutant SULT1A3 coding regions were inserted into a pGEX-6P expression vector; N-His/GST/MBP triple-tag (N, cleaved yes); made in house; host or cells: E. coli BL21(DE3); inhibition: dose or concentration left out as unconfirmed. How it is done: The initial rates of SULT catalyzed 1-HP sulfonation are plotted as a function of inhibitor concentration, and are normalized relative to [inhibitor]=0. Enzyme activity was monitored by the sulfonation dependent change in 1-HP fluorescence (λex=325 nm, λem=370 nm). Less than 5% of the concentration-limiting substrate converted at the reaction endpoint was consumed during initial-rate measurements. Each point is the average of three independent determinations. Conditions: SULT (20 nM, active sites), PAPS (0.50 mM, 17×Km), 1-HP (5.0 μM, 61×Km), KPO4 (50 mM), pH 7.5, 25±2° C.
(§1) Initial-Rate Studies. Initial-rate parameters for the labeled or mutant SULT1A3 constructs were determined using a previously described 1-HP assay (25). Briefly, reactions were initiated by addition of PAPS (0.50 mM, 17×Km) to a solution containing enzyme (20 nM, active sites), 1-HP (2.0 μM, ˜24×Km), and KPO4 (50 mM), pH 7.5, 25±2° C. Reactions were monitored via fluorescence change associated with the conversion of 1-HP to 1-HP-S (λex=325 nm, λem=370 nm). Keq for the 1-HP sulfonation reaction is −250. Given the reaction conditions outlined above, ≥99% of 1-HP is converted to 1-HP-S, and ˜0.4% of PAPS is converted to PAP at equilibrium. […] Reaction progress curves were analyzed to obtain initial-rate parameters as described previously (26,27).
(§2) Inhibition studies. Inhibition parameters were determined under conditions identical to those described above (see, Initial-Rate Studies) except that [1-HP] was increased to 5.0 μM (˜61×Km) and inhibitor concentration was varied between 0.20-20×Ki. Ki was obtained using a least-squares fit to the following partial inhibition equation (25,28): v=kcat·(Ki+(1/kcat inh)·[I])/(Ki+[I]), where kcat inh is enzyme turnover at saturating substrates and allosteric inhibitor.
as §1, with “(47).” for “(25).”, “˜250.” for “−250.”, “(48,49).” for “(26,27).”
(§3) Inhibition studies. Inhibition parameters were determined under conditions identical to those described above (see, Initial-Rate Studies) except that [1-HP] was increased to 5.0 μM (˜61×Km) and inhibitor concentration was varied between 0.20-20×Ki. Ki was obtained using a least-squares fit to the following partial inhibition equation (47,50): V/Vax=(Ki+α·[I])/(Ki+[I]), where α is percentage of enzyme turnover remaining at saturating substrates and allosteric inhibitor.

A further assay addresses SULT1A1 (Homo sapiens, UniProt P50225). Description: SULT1A1 inhibition, 1-HP initial-rate assay. To be noted: ND = inhibition was not detected at 30 μM compound, parentheses one standard error; for inhibition: read-out: SULT1A1 Enzyme Inhibition at Saturation/%. How it is done:
as §2, §3

A further assay concerns the target Rhesus Macaque (1A3) (Macaca mulatta, UniProt A0A5F7ZQH3). Description: Inhibition of SULT1A3 homologues in different species: Rhesus Macaque. The method, then: (§4) Compounds 12, 23 and 25 were also tested for Inhibition of SULT1A3 in different species.
(§5) Inhibition of SULT1A3 Homologues in Different Species. SULT1A3 is only expressed in humans and higher primates. SULT1D1 is the isoform expressed in dogs and rodents that sulfonates neurotransmitters and is most similar to SULT1A3. Three synthesized allosteres (12, 23, and 25) were tested against both 1A3 and 1D1 from different species in order to explore testing in animal models. […] Mice have been engineered such that their SULT1A1/2 enzymes have been knocked out and replaced with the human versions of those isoforms.

In a further assay the target is Green Monkey (1A3) (Chlorocebus sabaeus, UniProt Z9LO20H8W3). In words: Inhibition of SULT1A3 homologues in different species: Green Monkey. The method, then:
as §4, §5

Another assay concerns the target Mouse (1D1) (Mus musculus, UniProt Q3UZZ6). In words: Inhibition of SULT1A3 homologues in different species: Mouse. The method, then:
as §4, §5

In the next assay the target is Dog (1D1) (Canis lupus familiaris, UniProt A0A8I3RXJ1). Description: Inhibition of SULT1A3 homologues in different species: Dog. The method, then: as §5, with “Compounds 12, 23 and 25 were also tested for Inhibition of SULT1A3 in different species. Inhibition” for “Inhibition”
The target of a further assay is T1, Rat (1D1) (Rattus norvegicus, UniProt G3V9R3).
T1 sequence (G3V9R3 1-295): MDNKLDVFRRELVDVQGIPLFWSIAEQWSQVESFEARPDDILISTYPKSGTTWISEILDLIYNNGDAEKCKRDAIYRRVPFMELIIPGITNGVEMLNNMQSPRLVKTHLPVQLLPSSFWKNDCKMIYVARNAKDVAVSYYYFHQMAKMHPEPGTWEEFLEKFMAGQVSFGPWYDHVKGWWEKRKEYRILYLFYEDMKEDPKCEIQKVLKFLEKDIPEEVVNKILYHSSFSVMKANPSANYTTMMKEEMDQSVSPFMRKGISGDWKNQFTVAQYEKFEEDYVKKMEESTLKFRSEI
Description: Inhibition of SULT1A3 homologues in different species: Rat. How it is done:
as §4, §5

Where [1] appears, read: ND = inhibition was not detected at 30 μM compound, parentheses one standard error, read-out: SULT1A3 Ki/μM.

Where two headings read alike, the source gives them in different places.

SULT1A3, sequence (P0DMM9 whole entry): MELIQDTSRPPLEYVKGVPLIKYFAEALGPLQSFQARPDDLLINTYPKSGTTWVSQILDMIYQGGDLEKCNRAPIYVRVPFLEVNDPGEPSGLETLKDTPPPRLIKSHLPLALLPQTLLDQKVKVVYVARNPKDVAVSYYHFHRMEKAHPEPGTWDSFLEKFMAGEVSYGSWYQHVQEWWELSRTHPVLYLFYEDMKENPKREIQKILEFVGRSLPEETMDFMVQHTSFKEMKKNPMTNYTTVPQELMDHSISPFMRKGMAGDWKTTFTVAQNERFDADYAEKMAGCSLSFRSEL
SULT1A1, sequence (P50225 whole entry): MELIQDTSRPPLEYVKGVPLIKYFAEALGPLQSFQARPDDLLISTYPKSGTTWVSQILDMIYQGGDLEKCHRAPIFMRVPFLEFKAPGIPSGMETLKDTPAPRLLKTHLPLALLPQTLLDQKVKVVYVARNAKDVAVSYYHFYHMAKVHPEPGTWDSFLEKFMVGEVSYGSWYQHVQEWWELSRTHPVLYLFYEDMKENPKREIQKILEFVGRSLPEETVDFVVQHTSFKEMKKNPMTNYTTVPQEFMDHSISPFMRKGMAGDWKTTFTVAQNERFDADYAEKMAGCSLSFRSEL
Mouse (1D1), sequence (Q3UZZ6 whole entry): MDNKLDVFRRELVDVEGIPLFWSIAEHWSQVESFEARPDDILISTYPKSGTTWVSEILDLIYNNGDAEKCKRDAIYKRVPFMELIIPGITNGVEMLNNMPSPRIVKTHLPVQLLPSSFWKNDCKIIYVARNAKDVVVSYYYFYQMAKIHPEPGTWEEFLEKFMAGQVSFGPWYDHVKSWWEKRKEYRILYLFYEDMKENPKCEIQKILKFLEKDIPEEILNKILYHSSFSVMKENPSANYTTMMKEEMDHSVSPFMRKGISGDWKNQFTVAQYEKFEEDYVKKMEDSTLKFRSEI
Green Monkey (1A3), sequence (Z9LO20H8W3 1-295): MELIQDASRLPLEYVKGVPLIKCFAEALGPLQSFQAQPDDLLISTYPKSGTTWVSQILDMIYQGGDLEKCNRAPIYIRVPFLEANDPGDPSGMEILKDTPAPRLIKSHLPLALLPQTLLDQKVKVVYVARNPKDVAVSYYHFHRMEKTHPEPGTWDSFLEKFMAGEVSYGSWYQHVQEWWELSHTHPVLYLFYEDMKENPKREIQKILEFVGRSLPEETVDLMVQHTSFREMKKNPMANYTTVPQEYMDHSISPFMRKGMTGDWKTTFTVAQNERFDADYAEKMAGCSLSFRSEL
Dog (1D1), sequence (A0A8I3RXJ1 entry or part of it): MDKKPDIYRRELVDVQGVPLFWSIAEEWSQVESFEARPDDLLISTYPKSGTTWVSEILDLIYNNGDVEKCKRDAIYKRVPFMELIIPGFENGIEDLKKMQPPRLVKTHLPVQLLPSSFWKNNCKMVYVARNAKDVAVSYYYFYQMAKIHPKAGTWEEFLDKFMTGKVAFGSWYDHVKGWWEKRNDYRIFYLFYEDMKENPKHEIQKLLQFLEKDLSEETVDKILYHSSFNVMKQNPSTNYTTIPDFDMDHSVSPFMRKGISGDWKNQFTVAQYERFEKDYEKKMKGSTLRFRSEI
Rhesus Macaque (1A3), sequence (A0A5F7ZQH3 1-295): as the sequence (Z9LO20H8W3 1-295) above, with A7T, V15M, C23Y, R230K, Y247F, A278E counted along it

On to `COC(=O)c1ccc2nc3c(cc2c1)C(=O)CC(C)C3` (stereo not shown) [Compound 6, Methyl 6-methyl-8-oxo-5,6,7,8-tetrahydroacridine-2-carboxylate], for which, on SULT1A3 (setting [1]), the Ki came out at 0.66 µM. Further, on SULT1A3 (parentheses one standard error), the inhibition turned out to be 35%.
The matching figures for `CC(C)Cc1ccc2cc(C(N)=O)ccc2n1` [Compound 11, 2-Isobutylquinoline-6-carboxamide]: 0.86 µM and 78%.
In the case of `CCCn1cc(-c2ccc3ccc(O)cc3c2)nn1` [Compound 20], the Ki worked out at 12.1 µM at SULT1A1 and 2.6 µM at SULT1A3 (setting [1]). In addition, the results for the inhibition on SULT1A1 and on SULT1A3 (parentheses one standard error) were 17% and 16%, respectively.
On to `O=C(O)/C=C/c1ccc2ncccc2c1` [Compound 10, (E)-3-(quinolin-6-yl)acrylic acid], for which the results for the Ki on SULT1A1 and on SULT1A3 (setting [1]) were 22 µM and 4.1 µM, respectively. Further, the results for the inhibition at SULT1A1 and on SULT1A3 (parentheses one standard error) were 30% and 72%, respectively.
For `CCCCNC(=O)c1ccc2nc(CC(C)C)ccc2c1` [Compound 7, N-Butyl-2-isobutylquinoline-6-carboxamide] the same measures were 5.1 µM, 1.3 µM, 67% and 51%.
Take `CC(C)Cc1ccc2cc(CCC(N)=O)cnc2n1` [Compound 25]: the “Rhesus Macaque (1A3) % inh” value on Rhesus Macaque (1A3) is given as 95 (2) %. Moreover, the Ki on Rhesus Macaque (1A3) (parentheses one standard error) was 25 nM; on Green Monkey (1A3) (parentheses one standard error), 87 nM; on Mouse (1D1) (parentheses one standard error), 32 nM; on SULT1A3 (setting [1]), 0.017 µM; on SULT1A3 (standard error in neighbouring cell, read-out: Human (1A3) Ki), 0.017 µM; at Dog (1D1) (standard error in neighbouring cell) it was 52 nM. For the same compound, on Rat (1D1) (parentheses one standard error), the Ki was found to be 1100 nM. Further, the “Green Monkey (1A3) % inh” value on Green Monkey (1A3) is 72 (5) %. Moreover, the “Mouse (1D1) % inh” value on Mouse (1D1) was 91 (2) %. Further, the “Human (1A3) % inh” value at SULT1A3 (parentheses one standard error) was 90 (3) %. For the same compound, the inhibition at SULT1A3 (parentheses one standard error) worked out at 90%. Moreover, the “Dog (1D1) % inh” value at Dog (1D1) is 73 (4) %. Moreover, the “Rat (1D1) % inh” value at Rat (1D1) is recorded as 21 (3) %.
For `CC1Cc2nc3ccc(C(N)=O)cc3cc2C(O)C1` (stereo not shown) [Compound 28, 8-Hydroxy-6-methyl-5,6,7,8-tetrahydroacridine-2-carboxamide], the Ki on SULT1A3 (setting [1]) came out at 0.085 µM. The inhibition at SULT1A3 (parentheses one standard error) was determined as 52%.
The matching figures for `CC1CC(=O)c2cc3cc(C(N)=O)ccc3nc2C1` (stereo not shown) [Compound 27, 6-Methyl-8-oxo-5,6,7,8-tetrahydroacridine-2-carboxamide]: 0.11 µM and 75%.
The matching figures for `CCOC(=O)CCc1ccc2cc(CCC(N)=O)ccc2n1` [Compound 9, Ethyl 3-(6-(3-amino-3-oxopropyl)quinolin-2-yl)propanoate]: 0.33 µM and 63%.
Take `CC(C)(C)Cc1ccc2cc(CO)ccc2n1` [Compound 18]: on SULT1A1, the Ki came out at 2.5 µM and the inhibition was 40%.
For `CC(C)Cc1ccc2cc(/C=C/C(=O)O)cnc2n1` [Compound 24, (E)-3-(7-Isobutylnaphthyridin-3-yl)acrylic acid], the Ki on SULT1A3 (setting [1]) was 3.1 µM. At SULT1A3 (parentheses one standard error), the inhibition is 29.4%.
As to `CC(C)Cc1ccc2cc(/C=C/C(N)=O)ccc2n1` [Compound 13, (E)-3-(2-Isobutylquinolin-6-yl)acrylamide], the Ki at SULT1A1 amounted to 6.2 µM; at SULT1A3 (setting [1]), 0.19 µM. In addition, the inhibition at SULT1A1 worked out at 48%; at SULT1A3 (parentheses one standard error) it was 65%.
As to `CCCn1cc(-c2ccc3ncccc3c2)nn1` [Compound 5, 6-(1-Propyl-1H-1,2,3-triazol-4-yl)quinoline], the Ki amounted to 4.7 µM on SULT1A1 and 3.1 µM at SULT1A3 (setting [1]). Besides, the figures for the inhibition on SULT1A1 and on SULT1A3 (parentheses one standard error) were 53% and 33%, respectively.
Consider `Cc1nc2ccc(CO)cc2cc1CC(C)C` [Compound 4], for which, at SULT1A1, the Ki was 7.7 µM and the inhibition was found to be 20%. For the same compound, the Ki at SULT1A3 (setting [1]) was 7.5 µM.
In the case of `COCc1ccc2nc(CC(C)C)ccc2c1` [Compound 3, 2-Isobutyl-6-(methoxymethyl)quinolone], the figures for the Ki at SULT1A1 and on SULT1A3 (setting [1]) were 5.7 µM and 6.1 µM, respectively. Also, the inhibition at SULT1A1 and on SULT1A3 (parentheses one standard error) was 10% throughout.
